# Experiments:
# human mAChRM1 [1] = molecular target: T1, human mAChRM1 (Homo sapiens, UniProt P11229); assay: mAChR M1 cell-based functional assay (calcium mobilization), positive allosteric modulator activity: increase in the EC20 acetylcholine response; settings: for Emax: PAM mode; for EC50: increase in the EC20 acetylcholine response, read-out: PAM Activity Human M1 EC50
# T1 construct: host or cells: CHO-K1
# T1 sequence (P11229 1-460): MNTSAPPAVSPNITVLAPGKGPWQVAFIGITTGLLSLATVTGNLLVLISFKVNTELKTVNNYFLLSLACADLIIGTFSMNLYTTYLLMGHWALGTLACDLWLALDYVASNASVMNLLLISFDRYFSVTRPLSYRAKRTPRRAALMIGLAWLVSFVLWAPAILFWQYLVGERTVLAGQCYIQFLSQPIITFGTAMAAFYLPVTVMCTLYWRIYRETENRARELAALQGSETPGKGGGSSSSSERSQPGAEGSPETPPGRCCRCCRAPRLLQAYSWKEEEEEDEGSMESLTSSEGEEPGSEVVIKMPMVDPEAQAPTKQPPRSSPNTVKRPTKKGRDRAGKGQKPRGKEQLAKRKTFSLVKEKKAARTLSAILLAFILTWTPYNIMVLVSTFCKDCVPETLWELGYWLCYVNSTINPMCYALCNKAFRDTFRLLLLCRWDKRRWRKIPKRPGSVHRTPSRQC
# Procedure, shortened: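 Potentiation is scored as the rise in an EC20 acetylcholine-evoked calcium signal across 11-point (1:3) compound series, fitted with a four-parameter logistic equation to give EC50 and Emax. Read-out is Fluo-4 fluorescence ratio in hM1-transfected CHO-K1 cells, measured kinetically on FDSS.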
# human mAChRM1 [2] = molecular target: T1, human mAChRM1; assay: mAChR M1 cell-based functional assay (calcium mobilization), agonist activity upon compound addition, Emax relative to acetylcholine maximum; settings: for EC50 / Agonist Activity Human M1 EC50: calcium mobilization upon compound addition; for Emax: relative to the maximum for acetylcholine
# Procedure, shortened: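 Emax is given as a percentage of the maximal acetylcholine response, from four-parameter curves of compound-evoked calcium mobilization. Human M1-transfected CHO-K1 cells carried Fluo-4 dye, and compound (11 concentrations, 1:3 steps) was applied at 4 s of a 300 s kinetic fluorescence recording.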
Compound,Emax (human mAChRM1 [1]),EC50 (human mAChRM1 [1]),EC50 (human mAChRM1 [2]),Emax (human mAChRM1 [2]),Agonist Activity Human M1 EC50 (human mAChRM1 [2])
"[2H]C([2H])([2H])C(C)(O)c1ccc(-c2cc(F)c(CN3Cc4ncccc4C3=O)c(F)c2)c2cn(C)nc12 (centres unmarked) [Compound 95, 6-(2,6-difluoro-4-(7-(2-hydroxypropan-2-yl-1,1,1-d3)-2-methyl-2H-indazol-4-yl)benzyl)-6,7-dihydro-5H-pyrrolo[3,4-b]pyridin-5-one]",86%,0.096 µM,1.86 µM,27%,
"Cn1cc2c(-c3cc(F)c(CN4Cc5ncccc5C4=O)c(F)c3)ccc(C3(O)CCC3)c2n1 [Compound 96, 6-(2,6-difluoro-4-(7-(1-hydroxycyclobutyl)-2-methyl-2H-indazol-4-yl)benzyl)-6,7-dihydro-5H-pyrrolo[3,4-b]pyridin-5-one]",84%,0.63 µM,,,inactive
"Cn1cc2c(-c3cc(F)c(CN4Cc5ncccc5C4=O)c(F)c3)ccc(C(C)(O)CS(C)(=O)=O)c2n1 (centres unmarked) [Compound 97, 6-(2,6-difluoro-4-(7-(2-hydroxy-1-(methylsulfonyl)propan-2-yl)-2-methyl-2H-indazol-4-yl)benzyl)-6,7-dihydro-5H-pyrrolo[3,4-b]pyridin-5-one]",87%,0.872 µM,,,inactive
"C[C@@H](c1c(F)cc(-c2ccc(C(C)(C)O)c3nn(C)cc23)cc1F)N1Cc2ncccc2C1=O [Compound 98, (S)-6-(1-(2,6-difluoro-4-(7-(2-hydroxypropan-2-yl)-2-methyl-2H-indazol-4-yl)phenyl)ethyl)-6,7-dihydro-5H-pyrrolo[3,4-b]pyridin-5-one]",80%,1.12 µM,,,inactive
"CCn1cc2c(-c3cc(F)c(CN4Cc5ncccc5C4=O)c(F)c3)ccc(C(C)(C)O)c2n1 [Compound 99, 6-(4-(2-ethyl-7-(2-hydroxypropan-2-yl)-2H-indazol-4-yl)-2,6-difluorobenzyl)-6,7-dihydro-5H-pyrrolo[3,4-b]pyridin-5-one]",85%,0.176 µM,4.11 µM,13%,
"Cn1cc2c(-c3cc(F)c(CN4Cc5ncccc5C4=O)c(F)c3)ccc(C(C)(O)C(F)F)c2n1 (centres unmarked) [Compound 100, 6-(4-(7-(1,1-difluoro-2-hydroxypropan-2-yl)-2-methyl-2H-indazol-4-yl)-2,6-difluorobenzyl)-6,7-dihydro-5H-pyrrolo[3,4-b]pyridin-5-one]",88%,0.211 µM,,,inactive
"Cn1cc2c(-c3cc(F)c(CN4Cc5ncccc5C4=O)c(F)c3)ccc(C3(O)CCC(C#N)CC3)c2n1 (centres unmarked) [Compound 101, 4-(4-(3,5-difluoro-4-((5-oxo-5,7-dihydro-6H-pyrrolo[3,4-b]pyridin-6-yl)methyl)phenyl)-2-methyl-2H-indazol-7-yl)-4-hydroxycyclohexane-1-carbonitrile]",86%,0.222 µM,,,inactive
"CC[C@@](C)(O)c1ccc(-c2cc(F)c(CN3Cc4ncccc4C3=O)c(F)c2)c2cn(C)nc12 [Compound 102, (R)-6-(2,6-difluoro-4-(7-(2-hydroxybutan-2-yl)-2-methyl-2H-indazol-4-yl)benzyl)-6,7-dihydro-5H-pyrrolo[3,4-b]pyridin-5-one]",85%,0.359 µM,,,inactive
"CC[C@](C)(O)c1ccc(-c2cc(F)c(CN3Cc4ncccc4C3=O)c(F)c2)c2cn(C)nc12 [Compound 103, (S)-6-(2,6-difluoro-4-(7-(2-hydroxybutan-2-yl)-2-methyl-2H-indazol-4-yl)benzyl)-6,7-dihydro-5H-pyrrolo[3,4-b]pyridin-5-one]",87%,0.254 µM,4.23 µM,11%,
"CC(C)n1cc2c(-c3cc(F)c(CN4Cc5ncccc5C4=O)c(F)c3)ccc(C(C)(C)O)c2n1 [Compound 104, 6-(2,6-difluoro-4-(7-(2-hydroxypropan-2-yl)-2-isopropyl-2H-indazol-4-yl)benzyl)-6,7-dihydro-5H-pyrrolo[3,4-b]pyridin-5-one]",86%,0.284 µM,,,inactive
"Cn1cc2c(-c3cc(F)c(CN4Cc5ncccc5C4=O)c(F)c3)ccc(C3(O)CC(F)(F)C3)c2n1 [Compound 105, 6-(4-(7-(3,3-difluoro-1-hydroxycyclobutyl)-2-methyl-2H-indazol-4-yl)-2,6-difluorobenzyl)-6,7-dihydro-5H-pyrrolo[3,4-b]pyridin-5-one]",72%,0.78 µM,> 10 µM,15%,
"Cn1cc2c(-c3cc(F)c(CN4Cc5c(F)cccc5C4=O)c(F)c3)ccc(C(C)(C)O)c2n1 [Compound 106, 2-(2,6-difluoro-4-(7-(2-hydroxypropan-2-yl)-2-methyl-2H-indazol-4-yl)benzyl)-4-fluoroisoindolin-1-one]",59%,4.68 µM,,,inactive
"CC(C)(O)c1cc2c(-c3cc(F)c(CN4Cc5ncccc5C4=O)c(F)c3)cccn2n1 [Compound 107, 6-(2,6-difluoro-4-(2-(2-hydroxypropan-2-yl)pyrazolo[1,5-a]pyridin-4-yl)benzyl)-6,7-dihydro-5H-pyrrolo[3,4-b]pyridin-5-one]",77%,2.79 µM,≥ 10 µM,12%,
"CC(C)(O)c1cc2cc(-c3cc(F)c(CN4Cc5ncccc5C4=O)c(F)c3)ccn2n1 [Compound 108, 6-(2,6-difluoro-4-(2-(2-hydroxypropan-2-yl)pyrazolo[1,5-a]pyridin-5-yl)benzyl)-6,7-dihydro-5H-pyrrolo[3,4-b]pyridin-5-one]",70%,1.8 µM,,,inactive
"Cn1cc2c(-c3cnc(CN4Cc5ncccc5C4=O)cn3)ccc(C(C)(C)O)c2n1 [Compound 109, 6-((5-(7-(2-hydroxypropan-2-yl)-2-methyl-2H-indazol-4-yl)pyrazin-2-yl)methyl)-6,7-dihydro-5H-pyrrolo[3,4-b]pyridin-5-one]",70%,≥ 10 µM,,,inactive
"Cn1cc2c(-c3cnc(CN4Cc5ncccc5C4=O)nc3)ccc(C(C)(C)O)c2n1 [Compound 110, 6-[[5-[7-(1-Hydroxy-1-methyl-ethyl)-2-methyl-indazol-4-yl]pyrimidin-2-yl]methyl]-7H-pyrrolo[3,4-b]pyridin-5-one]",43%,≥ 10 µM,,,inactive
"Cn1cc2c(-c3ncc(CN4Cc5ncccc5C4=O)cn3)ccc(C(C)(C)O)c2n1 [Compound 111, 6-((2-(7-(2-hydroxypropan-2-yl)-2-methyl-2H-indazol-4-yl)pyrimidin-5-yl)methyl)-6,7-dihydro-5H-pyrrolo[3,4-b]pyridin-5-one]",47%,≥ 10 µM,,,inactive
"Cn1cc2c(-c3ccc(CN4Cc5ncccc5C4=O)nn3)ccc(C(C)(C)O)c2n1 [Compound 112, 6-((6-(7-(2-hydroxypropan-2-yl)-2-methyl-2H-indazol-4-yl)pyridazin-3-yl)methyl)-6,7-dihydro-5H-pyrrolo[3,4-b]pyridin-5-one]",27%,≥ 10 µM,,,inactive

# Source: US20260138978A1, “POSITIVE ALLOSTERIC MODULATORS OF THE MUSCARINIC ACETYLCHOLINE RECEPTOR M1” (Vanderbilt University, priority 2022, published 2026)
